Assay results taken from patent US20250179047A1, “5-[7-(3,4-DIHYDRO-1H-ISOQUINOLINE-2-CARBONYL)-1,2,3,4 TETRAHYDROISOQUINOLIN-6-YL]-1H-PYRROLE-3-CARBOXAMIDE DERIVATIVES, PHARMACEUTICAL COMPOSITIONS CONTAINING THEM AND THEIR USES AS PRO-APOPTOTIC AGENTS” (LES LABORATOIRES SERVIER, priority 2022, published 2025).

Tests used:
BCL2 WT = BCL2 WT (Homo sapiens (Human), UniProt P10415); assay: TR-FRET competitive binding assay, BCL2 WT; conditions: Ki determined from IC50, read-out: TR_FRET EKI_Bcl2 WT
Procedure, shortened: (§1)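 Competitive TR-FRET displacement of fluorescein-PUMA peptide (2 or 20 nM) from 0.5 nM terbium-labelled N-terminal Halo-fusion BCL2 (1-207, wild type or mutant) or BCLXL (2-196), expressed in E. coli. Buffer 50 mM Hepes pH 7.5, 150 mM NaCl, 5% DMSO; 2 h at 23°C. 520/495 nm ratio fitted over 11 points for IC50, converted to Ki.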

BCLXL WT = BCLXL WT (Homo sapiens (Human), UniProt Q07817); assay: TR-FRET competitive binding assay, BCLXL WT; conditions: for Ki: BCLXL WT, Ki determined from IC50, read-out: TR_FRET EKI BclxL; for TR_FRET EKI BCLxL/WT selectivty ratio: ratio Ki BCLxL / Ki BCL2 WT
Chain of BCLXL WT (Q07817 other isoform, or with tags, fused parts or gaps): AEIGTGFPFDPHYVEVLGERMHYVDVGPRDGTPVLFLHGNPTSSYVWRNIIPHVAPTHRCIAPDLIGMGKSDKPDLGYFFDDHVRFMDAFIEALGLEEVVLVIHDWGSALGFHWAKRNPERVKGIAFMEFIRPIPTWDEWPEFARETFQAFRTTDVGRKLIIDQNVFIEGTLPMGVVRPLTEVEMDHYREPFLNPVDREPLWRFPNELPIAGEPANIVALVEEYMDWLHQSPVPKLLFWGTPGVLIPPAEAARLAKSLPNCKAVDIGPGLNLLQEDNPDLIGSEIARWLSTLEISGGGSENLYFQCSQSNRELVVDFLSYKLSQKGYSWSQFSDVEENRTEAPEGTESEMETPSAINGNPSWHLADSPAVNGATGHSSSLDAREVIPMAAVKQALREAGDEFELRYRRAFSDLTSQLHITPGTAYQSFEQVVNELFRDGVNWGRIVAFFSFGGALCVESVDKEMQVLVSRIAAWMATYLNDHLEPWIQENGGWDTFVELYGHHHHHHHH
Procedure, shortened: as §1

BCL2 G101V [1] = assay: TR-FRET competitive binding assay, BCL2 G101V; set-up: species or system human; conditions: ratio Ki BCL2 G101V / Ki BCL2 WT
Procedure, shortened: as §1

BCL2 G101V [2] = target: BCL2 G101V (Homo sapiens, UniProt P10415, G101V); assay: TR-FRET competitive binding assay, BCL2 G101V; conditions: BCL2 G101V; Ki determined from IC50; read-out: TR_FRET EKI_Bcl2 G101V
Procedure, shortened: as §1

KMS-12-PE Bcl-2 WT = assay: In vitro cytotoxicity CellTiter-Glo 48 h, KMS-12-PE Bcl-2 WT; format: cell-based; conditions: Homo sapiens, KMS-12-PE, C50 = concentration needed to reach 50% of the cellular viability
Procedure, shortened: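 Viability measured by CellTiter-Glo luminescence after 48 h compound exposure (11-point curve, 37 °C, 5% CO2). Cells: KMS-12-PE transduced with wild-type or G101V-mutant Bcl-2, FACS-sorted for TagRFP. Reported C50 = concentration reaching 50% cellular viability.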

BCL2 D103Y = BCL2 D103Y (Homo sapiens, UniProt P10415, D103Y); assay: TR-FRET competitive binding assay, BCL2 D103Y; conditions: Ki determined from IC50, read-out: TR_FRET EKI_Bcl2 D103Y
Procedure, shortened: as §1

Row | SMILES | Ki (BCL2 WT) | Ki (BCLXL WT) | TR_FRET EKI BCLxL/WT selectivty ratio (BCLXL WT) | TR_FRET EKI G101V/WT selectivty ratio (BCL2 G101V [1]) | Ki (BCL2 G101V [2]) | IC50 (KMS-12-PE Bcl-2 WT) | Ki (BCL2 D103Y)
1 | COC[C@@H]1Cc2ccccc2CN1C(=O)c1cc2c(cc1-c1cc(C(=O)N(c3ccccc3)c3cnn(C(F)F)c3)c(C)n1C)CCN(C(=O)Cc1ccc(OCCN3CCOCC3)cc1)C2 [Example 205, N-[1-(difluoromethyl)pyrazol-4-yl]-5-[7-[(3S)-3-(methoxymethyl)-3,4-dihydro-1H-isoquinoline-2-carbonyl]-2-[2-[4-(2-morpholinoethoxy)phenyl]acetyl]-3,4-dihydro-1H-isoquinolin-6-yl]-1,2-dimethyl-N-phenyl-pyrrole-3-carboxamide] | 0.07 nM | 20 nM | 270.3 | 100.3 | 7.4 nM | 0.0126 µM | 0.19 nM
2 | Cc1c(C(=O)N(c2ccccc2)c2cnn(C(F)F)c2)cc(-c2cc3c(cc2C(=O)N2Cc4ccccc4C[C@H]2CN2CC4(CCC4)C2)CN(C(=O)Cc2ccc(OCCN4CCOCC4)cc2)CC3)n1C [Example 206, 5-[7-[(3S)-3-(2-azaspiro[3.3]heptan-2-ylmethyl)-3,4-dihydro-1H-isoquinoline-2-carbonyl]-2-[2-[4-(2-morpholinoethoxy)phenyl]acetyl]-3,4-dihydro-1H-isoquinolin-6-yl]-N-[1-(difluoromethyl)pyrazol-4-yl]-1,2-dimethyl-N-phenyl-pyrrole-3-carboxamide] | 0.014 nM | 107 nM | 7642.9 | 321.5 | 4.5 nM | 0.047 µM | 0.09 nM
3 | Cc1c(C(=O)N(c2ccccc2)c2cnn(CCN(C)C)c2)cc(-c2cc3c(cc2C(=O)N2Cc4ccccc4C[C@H]2C)CN(C(=O)Cc2ccc(OCCC4CCOCC4)cc2)CC3)n1C [Example 207, N-[l-[2-(dimethylamino)ethyl]pyrazol-4-yl]-1,2-dimethyl-5-[7-[(3R)-3-methyl-3,4-dihydro-1H-isoquinoline-2-carbonyl]-2-[2-[4-(2-tetrahydropyran-4-ylethoxy)phenyl]acetyl]-3,4-dihydro-1H-isoquinolin-6-yl]-N-phenyl-pyrrole-3-carboxamide] | 0.02 nM | 3 nM | 150.0 | 68.8 | 1.4 nM | 0.023 µM | 0.04 nM
4 | Cc1c(C(=O)N(c2ccccc2)c2cnn(C)c2)cc(-c2cc3c(cc2C(=O)N2Cc4ccccc4C[C@H]2C)CN(C(=O)Cc2ccc(OCCN(C)C)cc2)CC3)n1C [Example 208, 5-[2-[2-[4-[2-(dimethylamino)ethoxy]phenyl]acetyl]-7-[(3R)-3-methyl-3,4-dihydro-1H-isoquinoline-2-carbonyl]-3,4-dihydro-1H-isoquinolin-6-yl]-1,2-dimethyl-N-(1-methylpyrazol-4-yl)-N-phenyl-pyrrole-3-carboxamide] | 0.04 nM | 8.8 nM | 200.0 | 83.8 | 3.7 nM | 0.0301 µM | 0.12 nM
5 | COc1ccc(N(C(=O)c2cc(-c3cc4c(cc3C(=O)N3Cc5ccccc5C[C@H]3C)CN(C(=O)Cc3ccc(OCCN5CCOCC5)cc3)CC4)n(C)c2C)c2ccc(F)cc2)cc1C#N [Example 209, N-(3-cyano-4-methoxy-phenyl)-N-(4-fluorophenyl)-1,2-dimethyl-5-[7-[(3R)-3-methyl-3,4-dihydro-1H-isoquinoline-2-carbonyl]-2-[2-[4-(2-morpholinoethoxy)phenyl]acetyl]-3,4-dihydro-1H-isoquinolin-6-yl]pyrrole-3-carboxamide] | 0.08 nM | 23 nM | 291.1 | 47.5 | 3.8 nM | 0.0486 µM | 0.21 nM
6 | CCn1cc(N(C(=O)c2cc(-c3cc4c(cc3C(=O)N3Cc5ccccc5C[C@H]3C)CN(C(=O)Cc3ccc(OCCN5CCOCC5)cc3)CC4)n(C)c2C)c2ccccc2)c(C)n1 [Example 210, N-(1-ethyl-3-methyl-pyrazol-4-yl)-1,2-dimethyl-5-[7-[(3R)-3-methyl-3,4-dihydro-1H-isoquinoline-2-carbonyl]-2-[2-[4-(2-morpholinoethoxy)phenyl]acetyl]-3,4-dihydro-1H-isoquinolin-6-yl]-N-phenyl-pyrrole-3-carboxamide] | 0.04 nM | 29 nM | 828.6 | 118.3 | 4.1 nM | 0.0395 µM | 0.11 nM
7 | Cc1c(C(=O)N(c2ccccc2)c2cnn(C(F)F)c2)cc(-c2cc3c(cc2C(=O)N2Cc4ccccc4C[C@H]2CF)CN(C(=O)Cc2ccc(OCCN4CCOCC4)cc2)CC3)n1C [Example 211, N-[1-(difluoromethyl)pyrazol-4-yl]-5-[7-[(3S)-3-(fluoromethyl)-3,4-dihydro-1H-isoquinoline-2-carbonyl]-2-[2-[4-(2-morpholinoethoxy)phenyl]acetyl]-3,4-dihydro-1H-isoquinolin-6-yl]-1,2-dimethyl-N-phenyl-pyrrole-3-carboxamide] | 0.07 nM | 26 nM | 351.4 | 72.1 | 5.3 nM | 0.0157 µM | 0.18 nM
8 | Cc1c(C(=O)N(c2ccccc2)c2cnn(C(F)F)c2)cc(-c2cc3c(cc2C(=O)N2Cc4ccccc4C[C@H]2C)CN(C(=O)Cc2ccc(C#CCN4CCOCC4)cc2)CC3)n1C [Example 212, N-[1-(difluoromethyl)pyrazol-4-yl]-1,2-dimethyl-5-[7-[(3R)-3-methyl-3,4-dihydro-1H-isoquinoline-2-carbonyl]-2-[2-[4-(3-morpholinoprop-1-ynyl)phenyl]acetyl]-3,4-dihydro-1H-isoquinolin-6-yl]-N-phenyl-pyrrole-3-carboxamide] | 0.05 nM | 4.8 nM | 104.3 | 37.0 | 1.7 nM | 0.006 µM | 0.13 nM
9 | Cc1c(N(C(=O)c2cc(-c3cc4c(cc3C(=O)N3Cc5ccccc5C[C@H]3C)CN(C(=O)Cc3ccc(OCCN(C)C)cc3F)CC4)n(C)c2C)c2ccccc2)cc(C#N)n1C [Example 213, N-(5-cyano-1,2-dimethyl-pyrrol-3-yl)-5-[2-[2-[4-[2-(dimethylamino)ethoxy]-2-fluoro-phenyl]acetyl]-7-[(3R)-3-methyl-3,4-dihydro-1H-isoquinoline-2-carbonyl]-3,4-dihydro-1H-isoquinolin-6-yl]-1,2-dimethyl-N-phenyl-pyrrole-3-carboxamide] | 0.01 nM | 1 nM | 108.9 | 46.6 | 0.4 nM | 0.0053 µM | 0.03 nM
10 | Cc1c(C(=O)N(c2ccccc2)c2cc(C#N)n(C(F)F)c2C)cc(-c2cc3c(cc2C(=O)N2Cc4ccccc4C[C@H]2C)CN(C(=O)Cc2ccc(OCCN4CCOCC4)cc2)CC3)n1C [Example 214, N-[5-cyano-1-(difluoromethyl)-2-methyl-pyrrol-3-yl]-1,2-dimethyl-5-[7-[(3R)-3-methyl-3,4-dihydro-1H-isoquinoline-2-carbonyl]-2-[2-[4-(2-morpholinoethoxy)phenyl]acetyl]-3,4-dihydro-1H-isoquinolin-6-yl]-N-phenyl-pyrrole-3-carboxamide] | 0.05 nM | 8.6 nM | 168.6 | 13.3 | 0.7 nM | 0.0035 µM | 0.12 nM
11 | Cc1c(N(C(=O)c2cc(-c3cc4c(cc3C(=O)N3Cc5ccccc5C[C@H]3C)CN(C(=O)Cc3ccc(OCCN5CCOCC5)cc3)CC4)n(C)c2C)c2ccccc2)cnn1C(F)F [Example 215, N-[1-(difluoromethyl)-5-methyl-pyrazol-4-yl]-1,2-dimethyl-5-[7-[(3R)-3-methyl-3,4-dihydro-1H-isoquinoline-2-carbonyl]-2-[2-[4-(2-morpholinoethoxy)phenyl]acetyl]-3,4-dihydro-1H-isoquinolin-6-yl]-N-phenyl-pyrrole-3-carboxamide] | 0.06 nM | 16 nM | 280.7 | 80.9 | 4.6 nM | 0.0147 µM | 0.13 nM
12 | Cc1c(C(=O)N(c2ccccc2)c2cnn(C)c2)cc(-c2cc3c(cc2C(=O)N2Cc4ccccc4C[C@H]2C)CN(C(=O)Cc2cccc(C4CCN(C)CC4)c2)CC3)n1C [Example 216, 1,2-dimethyl-5-[7-[(3R)-3-methyl-3,4-dihydro-1H-isoquinoline-2-carbonyl]-2-[2-[3-(1-methyl-4-piperidyl)phenyl]acetyl]-3,4-dihydro-1H-isoquinolin-6-yl]-N-(1-methylpyrazol-4-yl)-N-phenyl-pyrrole-3-carboxamide] | 0.05 nM | 2.6 nM | 50.1 | 125.5 | 6.4 nM | 0.0449 µM | 0.33 nM
